In patent US9861647B2 (Prelief Inc., priority 2007, dated 2018):

Columns and labels:
[1] = system: inflammatory cells in nasal lavage; assay: Nasal lavage cell counts and differentials after nasal ragweed challenge; format: in vivo, Beagle dogs
Description: (§1) Ragweed sensitized beagle dogs (n=5) with preexisiting nasal and airway allergic responses were utilized in the animal study described in this Example. Dogs served as their own control and initially were treated with vehicle (sterile water) and then rested for 5 weeks prior to receiving the test compound. […] Based on the aerosol testing only 1.6 mg/dog could be delivered by inhalation during a 15 minute exposure (20 mg/ml solution). In addition, each dog received twice daily an intranasal instillation of 30 mg (2×375 μl of 20 mg/ml in each nostril) given within 30 minutes after the end of the inhalation exposures.
FIG. 1 summarizes the study design for characterizing the effects of CGP on rhinitis symptoms in ragweed sensitized Beagle dogs. The baseline nasal cavity volume was first measured 3 days (day −3) before each of the vehicle and CGP treatments. The dogs were treated with vehicle or CGP (day 0) twice daily with the target dosage described above. […]
Total nasal cells were determined using an automatic cell counter. […] At least four hundred inflammatory cells (or less if applicable) were counted and the percentage of specific cell types determined for each animal (slides in duplicates, 200 cells per slide). […]
Changes in nasal cavity volume or mediator levels were assessed by two way analysis of variance (ANOVA) with Bonferroni post-test. […]

[2] = Tolerability in dogs: daily observations, body weights, blood chemistry; format: in vivo, Beagle dogs
Description: as §1
Vehicle (sterile water) was given twice daily by inhalation (15 minutes) followed by intranasal instillation of water (2×250 μl in each nostril). […] The test-article and the compound solution were prepared in the morning of each treatment day. Vehicle and test-article were administered by inhalation and intranasal instillation twice a day. Dosing of vehicle or test compound was achieved by utilizing a face mask connected to a jet nebulizer for inhalation delivery followed by intranasal instillation in both nostrils using an Accuspray device.
Blood sample was collected by placing a venous (cephalic or saphenous) catheter in the leg prior to anesthesia or by venipuncture (jugular) using a syringe or needle-vacutainer. […]

nosebleeds = assay: Stanching nosebleeds at higher CGP levels; format: in vivo; details: higher levels tested, about 7.5% (w/w) or above

In the case of calcium glycerophosphate, the “levels of macrophages in nasal lavage” value ([1]; following treatment, not detectable following vehicle) is reported as “negligible levels”, the “number of inflammatory cells in the nasal lavage” value ([1]; pretreatment vs vehicle, Days 1 and 2 after nasal RW challenge) is reported as “did tend to reduce the lung inflammatory cells compared to vehicle treatment, although none of the endpoints reached statistical significance” and the “daily observations, adverse health effects” value ([2]; dog, in vivo) is reported as “No adverse health effects were found”. The tolerability ([2]; dogs, BID inhalation + intranasal instillation, Days 0 to 5) was “well tolerated” and the stanching nosebleeds (nosebleeds) was “may help in stanching nosebleeds”.
